4 compounds from patent publication US8653270B2, “Compounds as receptor modulators with therapeutic utility” (Allergan, Inc., priority 2010, dated 2014) can be followed below.

For assay [1], the system named is blood lymphocytes. As to the kind of experiment: Lymphopenia assay in mice. Format: in vivo. Conditions: female C57BL6 mice, 10 mg/Kg subcutaneously, after 24 hours. The procedure:
Test drugs are prepared in a solution containing 3% (w/v) 2-hydroxy propyl β-cyclodextrin (HPBCD) and 1% DMSO to a final concentration of 1 mg/ml, and subcutaneously injected to female C57BL6 mice (CHARLES RIVERS) weighing 20-25 g at the dose of 10 mg/Kg. Blood samples are obtained by puncturing the submandibular skin with a Goldenrod animal lancet at 24, 48, 72, and 96 hrs post drug application. Blood is collected into microvettes (SARSTEDT) containing EDTA tripotassium salt. Lymphocytes in blood samples are counted using a HEMAVET Multispecies Hematology System, HEMAVET HV950FS (Drew Scientific Inc.).
(Hale, J. et al Bioorg. & Med. Chem. Lett. 14 (2004) 3351).
A lymphopenia assay in mice; as previously described, was employed to measure the in vivo blood lymphocyte depletion after dosing with (2S)-2-amino-3-oxo-3-({4-[(5-phenylpentyl)oxy]-3-(2-thienyl)phenyl}amino)propyl dihydrogen phosphate. This S1P1 agonist is useful for S1P-related diseases and exemplified by the lymphopenia in vivo response. […] Lymphocytes in blood samples were counted using a HEMAVET Multispecies Hematology System, HEMAVET HV950FS (Drew Scientific Inc.). […]

In assay [2] the target is T1, human S1P1 receptor (Homo sapiens, UniProt P21453).
T1 construct: expressed in transfected cells; membranes used
T1 sequence (P21453 whole entry): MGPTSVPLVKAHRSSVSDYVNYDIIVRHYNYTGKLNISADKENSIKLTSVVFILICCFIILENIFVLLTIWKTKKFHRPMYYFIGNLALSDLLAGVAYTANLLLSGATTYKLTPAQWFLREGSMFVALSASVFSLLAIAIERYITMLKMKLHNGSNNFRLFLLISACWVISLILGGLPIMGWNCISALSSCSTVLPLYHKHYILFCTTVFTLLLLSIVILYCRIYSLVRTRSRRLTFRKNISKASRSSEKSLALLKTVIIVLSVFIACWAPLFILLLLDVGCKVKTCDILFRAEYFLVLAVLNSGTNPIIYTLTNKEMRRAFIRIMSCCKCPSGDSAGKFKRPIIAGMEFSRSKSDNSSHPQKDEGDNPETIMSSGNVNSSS
As to the kind of experiment: GTP γ35S binding assay for S1P1 activity. Format: biochemical. As to conditions: membranes of cells stably expressing S1P1 receptor, 30 min at 25° C. The procedure:
Compounds were tested for S1P1 activity using the GTP γ^35S binding assay. These compounds may be assessed for their ability to activate or block activation of the human S1P1 receptor in cells stably expressing the S1P1 receptor.
GTP γ^35S binding was measured in the medium containing (mM) HEPES 25, pH 7.4, MgCl2 10, NaCl 100, dithitothreitol 0.5, digitonin 0.003%, 0.2 nM GTP γ^35S, and 5 μg membrane protein in a volume of 150 μl. Test compounds were included in the concentration range from 0.08 to 5,000 nM unless indicated otherwise. Membranes were incubated with 100 μM 5′-adenylylimmidodiphosphate for 30 min, and subsequently with 10 μM GDP for 10 min on ice. Drug solutions and membrane were mixed, and then reactions were initiated by adding GTP γ^35S and continued for 30 min at 25° C. Reaction mixtures were filtered over Whatman GF/B filters under vacuum, and washed three times with 3 mL of ice-cold buffer (HEPES 25, pH 7.4, MgCl2 10 and NaCl 100). Filters were dried and mixed with scintillant, and counted for ^35S activity using a β-counter. Agonist-induced GTP γ^35S binding was obtained by subtracting that in the absence of agonist. Binding data were analyzed using a non-linear regression method. In case of antagonist assay, the reaction mixture contained 10 nM S1P in the presence of test antagonist at concentrations ranging from 0.08 to 5000 nM. Activity potency: S1P1 receptor from GTP γ^35S: nM, (EC50),
Background: GTPγS is a poorly hydrolysed GTP analogue; its binding reports G protein activation.

A value given as a limit tells only on which side of the number the result lay.

In general, EC50 refers to the midpoint of the concentration-response curve. A lower EC50 goes with a more potent agent.

Turning to `N[C@@H](COP(=O)(O)O)C(=O)Nc1ccc(OCCCCCc2ccccc2)c(-c2cccs2)c1` [Compound 4, (2S)-2-amino-3-oxo-3-({4-[(5-phenylpentyl)oxy]-3-(2-thienyl)phenyl}amino)propyl dihydrogen phosphate], the “lymphocyte count (number of lymphocytes 10^3/μL blood)” value in assay [1] is given as < 1 10^3/μL blood. In addition, it took 3 nM to reach a half-maximal effect in assay [2] (EC50).

In assay [2], `C[C@](N)(COP(=O)(O)O)C(=O)Nc1ccc(OCCCCCc2ccccc2)c(-c2cccs2)c1` [Compound 2, (2S)-2-amino-2-methyl-3-oxo-3-({4-[(5-phenylpentyl)oxy]-3-(2-thienyl)phenyl}amino)propyl dihydrogen phosphate] showed an EC50 of 34 nM.

In assay [2], “(2S)-2-amino-3-({3-(2-furyl)-4-[(5-phenylpentyl)oxy]phenyl}amino)-3-oxopropyl dihydrogen phosphate [Compound 3]” showed an EC50 of 8 nM.

In assay [2], `C[C@@](N)(COP(=O)(O)O)C(=O)Nc1ccc(OCCCCCc2ccccc2)c(-c2cccs2)c1` [Compound 1, (2R)-2-amino-2-methyl-3-oxo-3-({4-[(5-phenylpentyl)oxy]-3-(2-thienyl)phenyl}amino)propyl dihydrogen phosphate] came in with an EC50 of 96 nM.
